From patent publication US7759459B2, “Fluorescent assays for protein kinases” (Albert Einstein College of Medicine of Yeshiva University, priority 2003, dated 2010)
Numbered stars: 1 amine (or outer) side, 2 acyl side, 3 side chain; on linkers, the order of the positions; unused ones are H or OH. Square brackets hold non-standard residues; d marks the D form. Peptide text beside a SMILES is read from it. * marks the point of attachment. X2 = O=C(O)CN(CC(=O)O)c1ccc(-c2c3cc(F)c(=O)cc-3oc3cc(O)c(F)cc23)cc1OCC(=O)*; X1 = O=C([C@H](CO)N(c1ccc([N+](=O)[O-])c2nonc12)[*:1])[*:2]; Acridine9carbonyl = O=C(c1c2ccccc2nc2ccccc12)*; Dansyl = CN(C)c1cccc2c(S(=O)(=O)*)cccc12; Cysteamide = C(CS[*:3])N[*:1]; Sar = CNCC(=O)O

Tested on: protein kinase C
Assay: Screen of fluorophore-peptide library for fluorescence change in the presence of PKC and ATP
Type: biochemical
Details: Table 3 library
Experimental: (§1) Fluorescent PKC assay-Fluorescence assays were performed in triplicate at 30° C. and initiated by addition of ATP to a 100 μL cuvette containing a 50 μL solution of PKC and peptide substrate 2. Final conditions: 62.5 mM HEPES pH 7.4, 3 mM MgCl2, 0.3 mM CaCl2, 0.1 mM EGTA, 1 mM DTT, 0.5 μg/mL phosphatidylserine, 0.1 μg/mL diacylglycerol, 1 mM ATP, and 13 nM PKC. After the addition of ATP, the solution was gently mixed and the time-dependent change in fluorescent intensity (excitation: 520 nm, emission: […]) continuously monitored with a Photon Technology QM-1 spectrofluorimeter.
The peptide H2N-Ser-Phe-Arg-Arg-Arg-Arg-Lys-amide (1) (SEQ ID NO:2) was prepared using an Fmoc-based protocol, spatially segregated, and the free N-terminal amine subsequently modified with an array of fluorophore-containing carboxylic acids (I), aromatic aldehydes (II), and electron deficient aryl halides (III). […] This spatially segregated fluorophore-substituted peptide-based library contains a total of 415 distinct chemical entities (Table 3) and was screened for changes in fluorescence intensity in the presence of PKC and ATP under activating conditions. […] The obvious explanation is that phosphorylation of the peptide fails to induce the desired change in photophysical properties of the appended fluorophore. However, it is also possible that introduction of fluorophores, at various sites along the peptide framework, interferes with PKC-catalyzed phosphorylation. The latter possibility is unlikely, particularly for simple N-monosubstituted peptides, since PKC will phosphorylate peptides containing a wide variety of structurally diverse functionality attached at and/or near the phosphorylatable serine moiety.^24 Nevertheless, a few representative members of the library were evaluated in depth (Table 1). […]. One explanation for the poor fluorescence response of these particular peptides to PKC/ATP could be that these peptides serve as poor PKC substrates. This possibility was addressed by obtaining the PKCα-catalyzed Km and Vmax values using the [γ-^32P]ATP radioactive method.^25 As is clear from Table 1, all five peptides are reasonably effective substrates for PKCα.
Table 3. Structures of 415 compounds tested. The % change observed in fluorescence intensity upon phosphorylation of the compound by protein kinase C is shown in the right column. […] The compound labeled as compound 21 in Table 3 is the same as compound 2 in Example I, which is also shown in Scheme 2.

Molecule	% change observed in fluorescence intensity upon phosphorylation of the compound by protein kinase C [%]
CN(C)c1cccc2c(S(=O)(=O)NC(=N)NC(O)C(=O)NC(C(=O)NC(NC(=N)N)C(=O)NC(NC(=N)N)C(=O)NC(NC(=N)N)C(=O)NC(NC(=N)N)C(=O)NC(N)C(N)=O)c3ccccc3)cccc12 (stereo not shown) [Compound 85]	<10
N=C(N)NC(NC(=O)C(NC(=N)N)NC(=O)C(NC(=N)N)NC(=O)C(NC(=N)N)NC(=O)C(NC(=O)C(O)/N=C/c1cc([N+](=O)[O-])cc([N+](=O)[O-])c1O)c1ccccc1)C(=O)NC(N)C(N)=O (stereo not shown) [Compound 55]	<10
N=C(N)NC(NC(=O)C(NC(=N)N)NC(=O)C(NC(=N)N)NC(=O)C(NC(=N)N)NC(=O)C(NC(=O)C(O)N1C=C(c2ccccc2)C(=O)C1(O)c1ccccc1C(=O)O)c1ccccc1)C(=O)NC(N)C(N)=O (stereo not shown) [Compound 78]	<10
N=C(N)NC(NC(=O)C(NC(=N)N)NC(=O)C(NC(=N)N)NC(=O)C(NC(=N)N)NC(=O)C(NC(=O)c1ccc2c3c4c(ccc13)C=CCC4=CC2)NC(=O)C(O)Nc1ccc([N+](=O)[O-])c2nonc12)C(N)=O (stereo not shown) [Compound 73]	<10
N=C(N)NC(NC(=O)C(NC(=N)N)NC(=O)C(NC(=N)N)NC(=O)C(NC(=N)N)NC(=O)C(NC(=O)C(O)NC(=N)Nc1ccc(NOO)c2nonc12)c1ccccc1)C(=O)NC(N)C(N)=O (stereo not shown) [Compound 87]	<10
N=C(N)NC1=c2cc3ccccc3cc2=CC1C(CO)C(=O)NC(O)C(=O)NC(C(=O)NC(NC(=N)N)C(=O)NC(NC(=N)N)C(=O)NC(NC(=N)N)C(=O)NC(NC(=N)N)C(=O)NC(N)C(N)=O)c1ccccc1 (stereo not shown) [Compound 89]	<10
N=C(N)NC(NC(=O)C(NC(=N)N)NC(=O)C(NC(=N)N)NC(=O)C(NC(=N)N)NC(=O)C(NC(=O)C(O)NC(=O)C(CO)C1C=c2cc3ccccc3cc2=C1SC(=N)N)c1ccccc1)C(=O)NC(N)C(N)=O (stereo not shown) [Compound 91]	<10
N=C(N)NC(NC(=O)C(NC(=N)N)NC(=O)C(NC(=N)N)NC(=O)C(NC(=N)N)NC(=O)C(NC(=O)C(O)N=C1N=c2c(c3ccccc3c3ccccc23)=N1)c1ccccc1)C(=O)NC(N)C(N)=O (stereo not shown) [Compound 77]	<10
COCCN(CCOC)C1=c2cc3ccccc3cc2=CC1C(CO)C(=O)NC(C(=O)NC(NC(=N)N)C(=O)NC(NC(=N)N)C(=O)NC(NC(=N)N)C(=O)NC(NC(=N)N)C(=O)NC(N)C(N)=O)c1ccccc1 (stereo not shown) [Compound 93]	<10
N=C(N)NC(NC(=O)C(NC(=N)N)NC(=O)C(NC(=N)N)NC(=O)C(NC(=N)N)NC(=O)C(NC(=O)Cc1cc(=O)oc2cc(O)ccc12)NC(=O)C(O)Nc1ccc([N+](=O)[O-])c2nonc12)C(N)=O (stereo not shown) [Compound 75]	<10
N#CC1=c2cc3ccccc3cc2=CC1C(=N)NC(O)C(=O)NC(C(=O)NC(NC(=N)N)C(=O)NC(NC(=N)N)C(=O)NC(NC(=N)N)C(=O)NC(NC(=N)N)C(=O)NC(N)C(N)=O)c1ccccc1 (stereo not shown) [Compound 86]	<10
CCCCCC(=O)NCCCCC(CNS(=O)(=O)c1cccc2c(N(C)C)cccc12)NC(O)C(=O)NC(C(=O)NC(NC(=N)N)C(=O)NC(NC(=N)N)C(=O)NC(NC(=N)N)C(=O)NC(NC(=N)N)C(=O)NC(N)C(N)=O)c1ccccc1 (stereo not shown) [Compound 81]	<10
N=C(N)NC(NC(=O)C(NC(=N)N)NC(=O)C(NC(=N)N)NC(=O)C(NC(=N)N)NC(=O)C(NC(=O)C(O)NC(=O)C(CO)C1C=c2cc3ccccc3cc2=C1NN)c1ccccc1)C(=O)NC(N)C(N)=O (stereo not shown) [Compound 88]	<10
N=C(N)NNC1=c2cc3ccccc3cc2=CC1C(CO)C(=O)NC(C(=O)NC(NC(=N)N)C(=O)NC(NC(=N)N)C(=O)NC(NC(=N)N)C(=O)NC(NC(=N)N)C(=O)NC(N)C(N)=O)c1ccccc1 (stereo not shown) [Compound 92]	<10
N=C(N)NC(NC(=O)C(NC(=N)N)NC(=O)C(NC(=N)N)NC(=O)C(NC(=N)N)NC(=O)C(NC(=O)C(O)Nc1ccc(N)cc1)c1ccccc1)C(=O)NC(N)C(N)=O (stereo not shown) [Compound 76]	<10
N#CC1=c2cc3ccccc3cc2=CC1C(CO)C(=O)NC(O)C(=O)NC(C(=O)NC(NC(=N)N)C(=O)NC(NC(=N)N)C(=O)NC(NC(=N)N)C(=O)NC(NC(=N)N)C(=O)NC(N)C(N)=O)c1ccccc1 (stereo not shown) [Compound 90]	<10
CCCCCCCCCC(=O)NCCCCC(CNS(=O)(=O)c1cccc2c(N(C)C)cccc12)NC(O)C(=O)NC(C(=O)NC(NC(=N)N)C(=O)NC(NC(=N)N)C(=O)NC(NC(=N)N)C(=O)NC(NC(=N)N)C(=O)NC(N)C(N)=O)c1ccccc1 (stereo not shown) [Compound 82]	<10

Molecular target: T1, PKCα (Homo sapiens, UniProt P17252)
Assay: Radioactive PKC assay ([γ-32P]ATP)
Type: biochemical
Details: Table 2
Experimental: Radioactive PKC Assay—Radioactive assays were performed in duplicate at 30° C. The final assay volume totaled 40 μl and contained 62.5 mM HEPES (pH 7.4), 0.75 mM CaCl2, 12.5 mM MgCl2, 1 mM dithiothreitol, 0.5 mM EGTA, 7.5 μg/mL phosphatidylserine, 1.6 μg/mL diacylglycerol, and 10 ng of PKC. […] Phosphorylation reactions were initiated by the addition of 10 μL of PKC from a stock solution (20 mM Tris-HCl at pH 7.5, 1 mM dithiothreitol, 1 mM EDTA, and 0.75 mg/mL bovine serum albumin) into 30 μL of assay buffer containing peptide substrate. Reactions were terminated after 5 min by spotting 25 μL aliquots onto phosphocellulose paper disks (2.1 cm in diameter). After 10 s, the disks were immersed in 10% glacial acetic acid and soaked with occasional stirring for at least 1 h. The acetic acid was decanted and the disks were collectively washed with four volumes of 0.5% H3PO4, 1 volume of water, followed by a final acetone rinse. The disks were air dried and then counted in a Beckman LS scintillation counter.

Molecule	Km [µM]	kcat [s⁻¹]
H2N-Ser-Phe-Arg4-Lys(NBD)-amide [peptide 3]	19 ± 1	3.5 ± 0.167

Molecular target: T1, PKCα
Assay: Fluorescent PKC assay (spectrofluorimetry)
Type: biochemical
Details: PKC/ATP; fluorescence assay
Experimental: as §1

Molecule	fluorescence intensity change following phosphorylation (in words)
H2N-Ser-Phe-Arg4-Lys(NBD)-amide [peptide 3]	No Fluorescence Intensity Change

Same assay, conditions: PKCα-catalyzed phosphorylation; spectrofluorimetry

Molecule	Fluorescence enhancement upon phosphorylation (% Change) [%]
N=C(N)NCCC[C@H](NC(=O)[C@H](CCCNC(=N)N)NC(=O)[C@H](CCCNC(=N)N)NC(=O)[C@H](CCCNC(=N)N)NC(=O)[C@H](Cc1ccccc1)NC(=O)[C@H](CO)Nc1ccc([N+](=O)[O-])c2nonc12)C(=O)N[C@@H](CCCCN)C(N)=O (H-[X1]FRRRRK-NH2)	150
N=C(N)NCCC[C@H](NC(=O)[C@H](CCCNC(=N)N)NC(=O)[C@H](CCCNC(=N)N)NC(=O)[C@H](CCCNC(=N)N)NC(=O)[C@H](Cc1ccccc1)NC(=O)[C@H](CO)NC(=O)c1c2ccccc2nc2ccccc12)C(=O)N[C@@H](CCCCN)C(N)=O (Acridine9carbonyl-SFRRRRK-NH2)	20
CN(C)c1cccc2c(S(=O)(=O)N[C@@H](CO)C(=O)N[C@@H](Cc3ccccc3)C(=O)N[C@@H](CCCNC(=N)N)C(=O)N[C@@H](CCCNC(=N)N)C(=O)N[C@@H](CCCNC(=N)N)C(=O)N[C@@H](CCCNC(=N)N)C(=O)N[C@@H](CCCCN)C(N)=O)cccc12 (Dansyl-SFRRRRK-NH2)	20

Molecular target: T1, PKCα
Assay: Protein kinase C assay (Example II)
Type: biochemical
Details: PKC-catalyzed phosphorylation
Experimental: Protein kinase C assay. The kinase-catalyzed reaction was performed in triplicate at 30° C. and initiated by addition of ATP to a solution of PKCα and fluorophore-appended peptide substrate 23 (except in the case of the library, where the assays were performed in a 96 well plate using a fluorescence plate reader). Final conditions: 62.5 mM HEPES, 3 mM MgCl2, 0.3 mM CaCl2, 0.1 mM EGTA, 1 mM DTT, 0.5 μg/mL phosphatidylserine, 0.1 μg/mL diacylglycerol, 1 mM ATP, and 13 nM PKCα (pH 7.4). After the addition of ATP, the solution was gently mixed and the time-dependent change in fluorescent intensity (λexcitation=[…]; λemission=521 nm) continuously monitored with a Photon Technology QM-1 spectrofluorimeter.

Molecule	Km [µM]	Vmax [µmol/min/mg]
L-proline	63	1.9
D-proline	23.5	1.0

Same assay, conditions: upon PKC-catalyzed phosphorylation

Molecule	% Change Fluorescence [%]
L-proline	150
CN(CC(=O)N[C@@H](CO)C(=O)N[C@@H](Cc1ccccc1)C(=O)N[C@@H](CCCNC(=N)N)C(=O)N[C@@H](CCCNC(=N)N)C(=O)N[C@@H](CCCNC(=N)N)C(=O)N[C@@H](CCCNC(=N)N)C(=O)NCCS)C(=O)COc1cc(-c2c3cc(F)c(=O)cc-3oc3cc(O)c(F)cc23)ccc1N(CC(=O)O)CC(=O)O [N-Me glycine] (X2-[Sar]SFRRRR-Cysteamide)	264
CNCC(=O)O [N-methyl glycine]	264
D-proline	156
